Like-named read-outs stand apart in the source and are kept apart here.
Tests used:
PARS = PARS (Mus musculus, UniProt P11103); experiment: PARS inhibition by nucleoside derivatives (in vitro inflammation models); assay type: cell-based
Text: For example, conjugates of adenosine derivatives were investigated for PARS inhibition.

[1] = biological target: T1, poly (ADP-ribose) synthetase (PARS) (Mus musculus, UniProt P11103); experiment: Peroxynitrite-induced PARS activation and cell injury in J774 macrophages; assay type: cell-based; settings: J774 macrophages exposed to peroxynitrite
T1 construct: endogenous in cells; host or cells: J774 macrophages
T1 sequence (P11103 whole entry): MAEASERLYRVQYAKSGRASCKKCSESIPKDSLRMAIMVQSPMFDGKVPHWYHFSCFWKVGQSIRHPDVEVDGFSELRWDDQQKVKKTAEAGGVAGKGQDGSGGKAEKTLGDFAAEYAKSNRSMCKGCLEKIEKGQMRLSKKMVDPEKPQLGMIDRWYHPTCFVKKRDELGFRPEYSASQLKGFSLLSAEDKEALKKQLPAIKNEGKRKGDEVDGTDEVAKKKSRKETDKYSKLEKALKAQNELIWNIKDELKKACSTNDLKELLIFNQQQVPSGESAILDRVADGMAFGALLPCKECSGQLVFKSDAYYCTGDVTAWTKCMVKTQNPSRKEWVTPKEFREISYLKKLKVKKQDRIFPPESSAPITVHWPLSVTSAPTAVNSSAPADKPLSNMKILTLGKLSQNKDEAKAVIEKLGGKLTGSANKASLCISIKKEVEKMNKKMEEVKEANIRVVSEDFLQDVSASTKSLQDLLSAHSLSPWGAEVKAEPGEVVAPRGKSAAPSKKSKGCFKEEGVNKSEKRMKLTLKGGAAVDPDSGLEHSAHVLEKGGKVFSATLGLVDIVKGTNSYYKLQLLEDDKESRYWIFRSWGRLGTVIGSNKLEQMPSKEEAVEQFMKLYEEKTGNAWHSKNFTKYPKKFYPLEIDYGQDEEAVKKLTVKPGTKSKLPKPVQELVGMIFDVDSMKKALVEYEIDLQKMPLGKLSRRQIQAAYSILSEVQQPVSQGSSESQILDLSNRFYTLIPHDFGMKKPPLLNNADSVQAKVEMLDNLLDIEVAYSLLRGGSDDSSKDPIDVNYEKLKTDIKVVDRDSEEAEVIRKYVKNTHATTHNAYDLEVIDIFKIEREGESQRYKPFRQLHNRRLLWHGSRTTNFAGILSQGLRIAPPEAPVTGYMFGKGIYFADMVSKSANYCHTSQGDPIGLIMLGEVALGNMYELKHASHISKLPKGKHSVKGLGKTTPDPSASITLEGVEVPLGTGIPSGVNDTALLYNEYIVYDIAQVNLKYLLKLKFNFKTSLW
Text: In in vitro studies, J774 macrophages were exposed to peroxynitrite to induce activation of PARS and related cell injury.

[2] = system: mouse model of gut ischemia-reperfusion; experiment: Gut ischemia-reperfusion by ligation and release of superior mesenteric artery; FD4 gut permeability in everted gut sacks; settings: 10 mg/kg i.v. 10 min prior to reperfusion
Protocol: In order to examine the efficacy of the compounds of the invention in ischemia-reperfusion conditions, the effect of selected compounds in a local model of reperfusion injury was examined. […] The artery was occluded for 45 min, followed by reperfusion for 1 h. Following the end of the reperfusion, gut permeability was measured with the fluorescein isothiocyanate-conjugated dextran (FD4) method in everted gut sacks.
The artery was occluded for 45 min, followed by reperfusion for 1 h. Following the end of the reperfusion, gut permeability was measured with the FD4 method in everted gut sacks.

[3] = system: endotoxin-induced lethality in a mouse model; experiment: Endotoxin-induced lethality (systemic inflammation); assay type: in vivo
Protocol: The compounds were given as oral gavage at 10 mg/kg, twice a day.

[4] = system: rat model of middle cerebral artery occlusion/reperfusion; experiment: Middle cerebral artery occlusion/reperfusion; assay type: in vivo; settings: 2 h occlusion, 24 h reperfusion, 10 mg/kg i.v. then 10 mg/kg/h, tetrazolium staining
Protocol: Occlusion lasted for 2 hours, followed by reperfusion for 24 hours. Infarct size was quantified with tetrazolium staining and survival and neurological scores were monitored. The compounds were administered at 10 mg/kg i.v. 5 min before the start of reperfusion in one group, and continued at a rate of 10 mg/kg/h infusion during the reperfusion. Vehicle-treated animals (control) developed a >50% mortality over 24 hours, whereas <10% of the animals died in the drug treated groups. The compounds tested reduced the size of brain infarction by 64±2 and 57±3%, respectively.

[5] = 10 μM, Table 3 parent/reference compounds, read-out: INHIBITION at 10 μM
[6] = 10 μM, values marked *, asterisk not explained, read-out: Inhibition at 10 μM (values marked *)

PARS, sequence (P11103 whole entry): as above

| inhibition at 10 µM (PARS; read-out: Inhibition at 10 μM) | inhibition at 100 µM (PARS; read-out: Inhibition at 100 μM) | Molecule | further results |
| --- | --- | --- | --- |
|  |  | NC(=O)c1ccccc1-c1cccc(N)c1 [F, reference compound] | inhibition at 10 µM (PARS; [5]): 37% |
|  |  | O=C(CCC(=O)N1CCc2ccccc2C1)Nc1cccc2c1CNC2=O [Compound 36, 4-N-(tetrahydroisoquinolinosuccinamido)-2,3-dihydro-1H-isoindol-1-one] | % Inhibition (10 μM) [1]: 64% |
| 75% | 100% | Nc1ncnc2c1ncn2C1OC(CNC(=O)C(O)C(O)C(=O)Nc2cccc3c2CNC3=O)C(O)C1O (stereo not shown) [Compound 111] |  |
| 5% | 69% | NC(=O)c1ccccc1-c1cccc(NC(=O)CCC(=O)NCC2OC(n3cnc4c(N)ncnc43)C(O)C2O)c1 (stereo not shown) [Compound 133] |  |
|  |  | Nc1ncnc2c1ncn2C1OC(C(=O)NCC(=O)Nc2cccc3c2CNC3=O)C(O)C1O (stereo not shown) [Compound 128] | inhibition at 10 µM (PARS; [6]): 83.2% |
| 52% | 73% | NC(=O)c1cccc(NC(=O)CCC(=O)NCC2OC(n3cnc4c(N)ncnc43)C(O)C2O)c1 (stereo not shown) [Compound 134] |  |
|  |  | O=C1NCc2c(O)cccc21 [Compound 27, 4-hydroxy-2,3-dihydro-1H-isoindol-1-one] | inhibition at 10 µM [1]: 60% |
| 29% | 60% | CC1(C)OC2C(CNC(=O)CCC(=O)Nc3cccc4c3CNC4=O)OC(n3cnc4c(N)ncnc43)C2O1 (stereo not shown) [Compound 109] |  |
|  |  | O=C(O)CCC(=O)Nc1cccc2c1CNC2=O [Compound 55, 4-N-(succinyl)-2,3-dihydro-1H-isoindol-1-one] | % Inhibition (10 μM) [1]: 25% |
|  |  | Nc1ncnc2c1ncn2C1OC(CNC(=O)CCCCCCC(=O)Nc2cccc3c2CNC3=O)C(O)C1O (stereo not shown) [Compound 131] | inhibition at 10 µM (PARS; 10 μM): 36; inhibition at 100 µM (PARS; 100 μM): 68 |
|  |  | O=C(CCC(=O)Nc1cccc2c1CNC2=O)NCC1OC(n2cnc3c(NCC4CC4)ncnc32)C(O)C1O (stereo not shown) [Compound 122] | inhibition at 10 µM (PARS; [6]): 25% |
|  |  | Nc1ncnc2c1ncn2C1OC(C(=O)NCCC(=O)Nc2cccc3c2CNC3=O)C(O)C1O (stereo not shown) [Compound 129] | inhibition at 10 µM (PARS; [6]): 77.4% |
|  |  | 3-N-chloroacetyl-2,3-dihydro-1H-isoindol-1-one [Compound 5] | % Inhibition (10 μM) [1]: 29% |
| 64% | 100% | Nc1ncnc2c1ncn2C1OC(CNC(=O)CC(=O)Nc2cccc3c2CNC3=O)C(O)C1O (stereo not shown) [Compound 101] |  |
|  |  | O=C(O)CCn1ccc2c1CCCC2=O [C, reference compound] | inhibition at 10 µM (PARS; [5]): 4% |
|  |  | CN(CCC(=O)Nc1cccc2c1CNC2=O)C(=O)C1OC(n2cnc3c(N)ncnc32)C(O)C1O (stereo not shown) [Compound 124] | reduction of the increase in the permeability of the gut [2]: 72%; protection against endotoxin-induced lethality [3]: protected against endotoxin-induced lethality; reduction of the size of brain infarction [4]: 64±2% |
|  |  | O=C1NCc2c1cccc2[N+](=O)[O-] [Compound 3, 4-nitro-2,3-dihydro-1H-isoindol-1-one] | inhibition at 10 µM [1]: 12% |
|  | 81% | Nc1ncnc2c1ncn2C1OC(CNC(=O)CC(O)CC(=O)Nc2cccc3c2CNC3=O)C(O)C1O (stereo not shown) [Compound 121] | inhibition at 10 µM (PARS; [6]): 13.3% |
|  |  | COc1cccc2c1CNC2=O [Compound 28] | inhibition at 10 µM [1]: 64% |
|  |  | Nc1ncnc2c1ncn2C1OC(CNC(=O)CCCCCCC(=O)Nc2cccc3c2CNC3=O)C(O)C1O (stereo not shown) [Compound 106] | inhibition at 10 µM (PARS; 10 μM): 98; inhibition at 100 µM (PARS; 100 μM): 100 |
| 62% | 100% | Nc1ncnc2c1ncn2C1OC(CNC(=O)CCCCCCCC(=O)Nc2cccc3c2CNC3=O)C(O)C1O (stereo not shown) [Compound 107] |  |
| 32% | 42% | Nc1ncnc2c1ncn2C1OC(CNC(=O)CCn2ccc3c2CCCC3=O)C(O)C1O (stereo not shown) [Compound 136] |  |
| 25% | 58% | Nc1ncnc2c1ncn2C1OC(CNCC(=O)Nc2cccc3c2CNC3=O)C(O)C1O (stereo not shown) [Compound 119] |  |
| 66% | 100% | Nc1ncnc2c1ncn2C1OC(CNC(=O)CCCCCC(=O)Nc2cccc3c2CNC3=O)C(O)C1O (stereo not shown) [Compound 105] |  |
| 14.2% |  | Nc1ncnc2c1ncn2C1OC(C(=O)O)C(O)C1O (stereo not shown) [Compound 140] |  |

| inhibition at 10 µM (PARS; read-out: Inhibition at 10 μM) | inhibition at 100 µM (PARS; read-out: Inhibition at 100 μM) | Molecule | further results |
| --- | --- | --- | --- |
| 62% | 100% | Nc1ncnc2c1ncn2C1OC(CNC(=O)CNC(=O)Nc2cccc3c2CNC3=O)C(O)C1O (stereo not shown) [Compound 120] |  |
|  |  | O=C1NCc2c(F)cccc21 [Compound 2] | inhibition at 10 µM [1]: 27% |
|  |  | CN(CC(=O)Nc1cccc2c1CNC2=O)C(=O)C1OC(n2cnc3c(N)ncnc32)C(O)C1O (stereo not shown) [Compound 123] | inhibition at 10 µM (PARS; [6]): 74% |
|  |  | CCN(CCC(=O)Nc1cccc2c1CNC2=O)C(=O)C1OC(n2cnc3c(N)ncnc32)C(O)C1O (stereo not shown) [Compound 127] | inhibition at 10 µM (PARS; [6]): 89% |
|  |  | CN1CCN(CCCC(=O)Nc2cccc3c2CNC3=O)CC1 [Compound 10, 4-N-(N-methylpiperazine)butylamido-2,3-dihydro-1H-isoindol-1-one] | % Inhibition (10 μM) [1]: 35% |
| 56% | 100% | Nc1ncnc2c1ncn2C1OC(CNC(=O)COCC(=O)Nc2cccc3c2CNC3=O)C(O)C1O (stereo not shown) [Compound 114] |  |
|  |  | CN(CCCCCCCC(=O)Nc1cccc2c1CNC2=O)C(=O)C1OC(n2cnc3c(N)ncnc32)C(O)C1O (stereo not shown) [Compound 125] | inhibition at 10 µM (PARS; [6]): 70% |
|  |  | CCN(CC(=O)Nc1cccc2c1CNC2=O)C(=O)C1OC(n2cnc3c(N)ncnc32)C(O)C1O (stereo not shown) [Compound 126] | inhibition at 10 µM (PARS; [6]): 67.1% |
|  |  | Nc1ncnc2c1ncn2C1OC(CNC(=O)CCC(=O)Nc2cccc3c2CNC3=O)C(O)C1O (stereo not shown) [Compound 102] | inhibition at 10 µM (PARS; read-out: Inhibition at 10 μM, 10 μM): 100%; inhibition at 100 µM (PARS; read-out: Inhibition at 100 μM, 100 μM): 100% |
|  |  | N=C(N)NCCC[C@H](N)C(=O)Nc1cccc2c1CNC2=O [Compound 42, 4-N-(arginyl)-2 ,3-dihydro-1H-isoindol-1-one] | % Inhibition (10 μM) [1]: 72% |
|  |  | O=C1NCc2ccccc21 [Compound 1] | inhibition at 10 µM (PARS; [5]): 33%; inhibition at 10 µM [1]: 33% |
| 21% | 40% | CC1(C)OC2C(CN3C(=O)c4ccccc4C3=O)OC(n3cnc4c(N)ncnc43)C2O1 (stereo not shown) [Compound 137] |  |
| 0% | 34% | Nc1ncnc2c1ncn2[C@@H]1OC(CNC(=O)c2c(F)ccc(F)c2C(=O)Nc2cccc3c2CNC3=O)[C@@H](O)[C@H]1O (stereo partly shown) [Compound 115] |  |
|  |  | CN1CCN(CCC(=O)Nc2cccc3c2CNC3=O)CC1 [Compound 9, 4-N-(N-methylpiperazine)propylamido-2,3-dihydro-1H-isoindol-1-one] | % Inhibition (10 μM) [1]: 59% |
|  | 27% | NCC1OC(n2cnc3c(N)ncnc32)C(O)C1O (stereo not shown) [Compound 139] |  |
|  |  | Nc1cccc2c1CNC2=O [Compound 4, 4-amino-2,3-dihydro-1H-isoindol-1-one] | inhibition at 10 µM (PARS; [5]): 27%; inhibition at 10 µM [1]: 27% |
|  |  | Nc1ncnc2c1ncn2[C@@H]1O[C@H](CO)[C@@H](O)[C@H]1O [G, adenosine, reference compound] | PARS inhibitory activity (in words) (PARS): only modest activity; inhibition at 10 µM (PARS; [5]): 40% |
| 31.3% | 51.4% | Nc1ncnc2c1ncn2[C@@H]1OC(CNC(=O)/C=C/c2ccc(C(=O)Nc3cccc4c3CNC4=O)cc2)[C@@H](O)[C@H]1O (stereo partly shown) [Compound 118] |  |
| 15% | 25% | CC1(C)OC2C(CNC(=O)CCn3ccc4c3CCCC4=O)OC(n3cnc4c(N)ncnc43)C2O1 (stereo not shown) [Compound 135] |  |
| 61% | 83% | O=C(CCC(=O)Nc1cccc2c1CNC2=O)NCC1OC(n2ccc(O)nc2=O)C(O)C1O (stereo not shown) [Compound 132] |  |
| 29% | 64% | CC1(C)OC2C(CNC(=O)CCCC(=O)Nc3cccc4c3CNC4=O)OC(n3cnc4c(N)ncnc43)C2O1 (stereo not shown) [Compound 110] |  |
| 34% | 74% | Nc1ncnc2c1ncn2C1OC(CNC(=O)CCCCCCCCC(=O)Nc2cccc3c2CNC3=O)C(O)C1O (stereo not shown) [Compound 108] |  |
| 0% | 55% | Nc1ncnc2c1ncn2[C@@H]1OC(CNC(=O)c2cc(Cl)c(Cl)cc2C(=O)Nc2cccc3c2CNC3=O)[C@@H](O)[C@H]1O (stereo partly shown) [Compound 116] |  |
|  |  | O=C(CN1CCNCC1)Nc1cccc2c1CNC2=O [Compound 73] | inhibition at 10 µM [1]: 61% |

| Molecule | inhibition at 10 µM (PARS; read-out: Inhibition at 10 μM) | inhibition at 100 µM (PARS; read-out: Inhibition at 100 μM) | further results |
| --- | --- | --- | --- |
| Nc1ncnc2c1ncn2C1OC(CNC(=O)C(F)(F)C(F)(F)C(F)(F)C(=O)Nc2cccc3c2CNC3=O)C(O)C1O (stereo not shown) [Compound 113] | 55% | 85% |  |
